pEC50, pIC50: −log10 of the molar value. Read-outs that look alike come from different tables or passages of the source.
How the values were obtained:
[1] = biological target: T1, Human cytomegalovirus DNA polymerase (Human cytomegalovirus, UniProt P08546); assay: HCMV polymerase assay (AlphaLISA, IC50); type: biochemical; settings: polymerase assay of Example 190
T1 construct: made in house; host or cells: SF21 insect cells (baculovirus vector)
Procedure: (§1) Human cytomegalovirus and varicella zoster virus DNA polymerases were expressed via baculovirus vector in SF21 cells and purified. Heterodimeric nucleic acid substrate used in the herpesvirus polymerase reactions was generated by annealing a 59-mer template to a 17-mer digoxigenin-labeled primer. Polymerase (HCMV final concentration of 0.2 nM; VZV final concentration of 0.4 nM) was combined with an inhibitor compound or DMSO in assay buffer (10 mM HEPES, pH 7.5, 25 mM KCl, 25 mM NaCl, 5 mM MgCl2, 5% glycerol, 0.67 mg/ml bovine serum albuminutes, and 1 mM tris(2-carboxyethyl)phosphine), and this mixture was pre-incubated for 30 minutes at room temperature in 384-well microtiter plates. The polymerization reaction was initiated by the addition of template/primer substrate (final concentration: 1.6 nM), and dNTPs (final concentration: 24 nM dCTP, 24 nMdGTP, 16 nM dATP, 16 nM dTTP, and 0.8 nM biotin-dUTP). After 60 minutes incubation at 37° C., reactions were terminated with quench buffer (25 mM HEPES pH 7.5, 100 mM NaCl, 0.25% Tween-20, 12 mM EDTA, and 1 mg/ml bovine serum albumin). Incorporation of biotinylated UTP was detected with 2.5-5 ug/ml anti-DIG AlphaLISA acceptor beads and 5-10 ug/ml streptavidin AlphaLISA donor beads (Perkin Elmer). Compound effects were normalized to the window defined by the controls (DMSO only and pre-quenched wells), and were fit using a 4-parameter algorithm to report an IC50.

[2] = biological target: T2, varicella zoster virus DNA polymerase (Varicella-zoster virus, UniProt P09252); assay: VZV polymerase assay (AlphaLISA, IC50); type: biochemical; settings: polymerase assay of Example 190
T2 construct: made in house; host or cells: SF21 insect cells (baculovirus vector)
Procedure: as §1

[3] = tested on: HCMV Strain AD169 in MRC-5 cells; assay: Viral qPCR assay HCMV (V0/V1, V2/V3), EC50; type: cell-based; settings: read-out: HCMV Cell (EC50)
Procedure: (§2) Viral qPCR Assays (V0/V1)
(§3) MRC5 cells, Vero cells, and MeWo cells were obtained from ATCC and were maintained at 37° C./5% CO2/90% relative humidity in Minimal Essential Medium with 10% fetal bovine serum, […] L-glutamine, 100 units/ml penicillin and 100 ug/ml streptomycin. Assay plates were prepared by dispensing compounds dissolved in DMSO into wells of 384 well collagen-coated plates using an ECHO acoustic dispenser. Each compound was tested in a 10-point, serial 3-fold dilution. Controls included uninfected cells and infected cells treated only with DMSO. Assays were initiated by mixing selected cells, in suspension, with virus, and dispensing 50 μl/well infected cells to pre-plated compounds. Plates were incubated at 37° C./5% CO2/90% relative humidity for ˜72 hrs to permit genomic replication, and infected cells were lysed by the addition of an equal volume of lysis buffer (10 mM Tris-HCl, pH8, 50 mM KCl, 2 mM MgCl2, 0.45% NP-40, 0.45% Tween-20, and 100 μg/ml proteinase K). An aliquot of the lysate was transferred to a 384-well PCR plate and incubated at 56° C. for 1 hour and then at 95° C. for 10 min. Levels of a viral gene and of the cellular control, PPIA (Thermo Fisher Assay ID=Hs04194521_s1), were measured in separate 10 μL qPCR assays using TaqMan® Gene Expression Master Mix (Applied Biosystems), and an 7900HT Fast Real-Time PCR System with 384-Well Block Module. 7-point, serial 10-fold dilutions of a plasmid standard were run on each plate to generate a standard curve, and genome copies numbers were calculated by plotting experimental Ct onto linear regression of the standard curve. Viral genome copy numbers were normalized by cellular control copy number, and compound effects were normalized to the window defined by the controls. Calculated % effects were fit using a 4-parameter algorithm, and EC50 was reported.
(§4) Viral qPCR Assays (V2/V3)
as §3, with “gene” for “gene and of the cellular control, PPIA (Thermo Fisher Assay ID=Hs04194521_s1),”, “in” for “in separate”, “Compound effects on viral” for “Viral”, “number” for “numbers were normalized by cellular control copy number, and compound effects”, “reported. • HCMV: Strain AD169 Street was assayed in MRC-5 cells and was used at 0.05-0.1 pfu/cell. The assays were performed in either growth media or in the same media with 50% fetal bovine serum. Primer-probe set was Thermo Fisher Assay ID=AIFATFK. • VZV: Strain Street was maintained as an infected cell stock in MRC-5 cells. It was assayed in MeWo or MRC5 cells and was used at 0.04-0.1 pfu/cell. […]” for “reported.”

[4] = tested on: VZV in MeWo or MRC5 cells; assay: Viral qPCR assay VZV (V0/V1, V2/V3), EC50; type: cell-based; settings: 10%
Procedure: as §2, §3, §4
as §3, with “gene” for “gene and of the cellular control, PPIA (Thermo Fisher Assay ID=Hs04194521_s1),”, “in” for “in separate”, “Compound effects on viral” for “Viral”, “number” for “numbers were normalized by cellular control copy number, and compound effects”, “reported. • HCMV: Strain AD169 Street was assayed in MRC-5 cells and was used at 0.05-0.1 pfu/cell. The assays were performed in either growth media or in the same media with 50% fetal bovine serum. Primer-probe set was Thermo Fisher Assay ID=AIFATFK. • VZV: Strain Street was maintained as an infected cell stock in MRC-5 cells. It was assayed in MeWo or MRC5 cells and was used at 0.04-0.1 pfu/cell. […]” for “reported.”

[5] = tested on: HSV-1 Strain F in Vero or MRC5 cells; assay: Viral qPCR assay HSV-1 (V0/V1, V2/V3), EC50; type: cell-based; settings: 10%
Procedure: as §2, §3, §4
as §3, with “gene” for “gene and of the cellular control, PPIA (Thermo Fisher Assay ID=Hs04194521_s1),”, “in” for “in separate”, “Compound effects on viral” for “Viral”, “number” for “numbers were normalized by cellular control copy number, and compound effects”, “reported. • HCMV: Strain AD169 Street was assayed in MRC-5 cells and was used at 0.05-0.1 pfu/cell. The assays were performed in either growth media or in the same media with 50% fetal bovine serum. Primer-probe set was Thermo Fisher Assay ID=AIFATFK. • VZV: Strain Street was maintained as an infected cell stock in MRC-5 cells. It was assayed in MeWo or MRC5 cells and was used at 0.04-0.1 pfu/cell. […]” for “reported.”

[6] = Human betaherpesvirus 5, AD169, MRC5, viral qPCR assay of Example 191
[7] = Human alphaherpesvirus 3, MRC5, MRC5 cells, read-out: VZV Cell (EC50) MRC5 10%
[8] = Human alphaherpesvirus 1, MRC5, MRC5 cells, read-out: HSV1 Cell (EC50) MRC5 10%
[9] = Human alphaherpesvirus 3, MeWo, MEWO cells, read-out: VZV Cell (EC50) MEWO 10%
[10] = Human alphaherpesvirus 1, Vero, VERO cells, read-out: HSV1 Cell (EC50) VERO 10%

T2 sequence (P09252 whole entry): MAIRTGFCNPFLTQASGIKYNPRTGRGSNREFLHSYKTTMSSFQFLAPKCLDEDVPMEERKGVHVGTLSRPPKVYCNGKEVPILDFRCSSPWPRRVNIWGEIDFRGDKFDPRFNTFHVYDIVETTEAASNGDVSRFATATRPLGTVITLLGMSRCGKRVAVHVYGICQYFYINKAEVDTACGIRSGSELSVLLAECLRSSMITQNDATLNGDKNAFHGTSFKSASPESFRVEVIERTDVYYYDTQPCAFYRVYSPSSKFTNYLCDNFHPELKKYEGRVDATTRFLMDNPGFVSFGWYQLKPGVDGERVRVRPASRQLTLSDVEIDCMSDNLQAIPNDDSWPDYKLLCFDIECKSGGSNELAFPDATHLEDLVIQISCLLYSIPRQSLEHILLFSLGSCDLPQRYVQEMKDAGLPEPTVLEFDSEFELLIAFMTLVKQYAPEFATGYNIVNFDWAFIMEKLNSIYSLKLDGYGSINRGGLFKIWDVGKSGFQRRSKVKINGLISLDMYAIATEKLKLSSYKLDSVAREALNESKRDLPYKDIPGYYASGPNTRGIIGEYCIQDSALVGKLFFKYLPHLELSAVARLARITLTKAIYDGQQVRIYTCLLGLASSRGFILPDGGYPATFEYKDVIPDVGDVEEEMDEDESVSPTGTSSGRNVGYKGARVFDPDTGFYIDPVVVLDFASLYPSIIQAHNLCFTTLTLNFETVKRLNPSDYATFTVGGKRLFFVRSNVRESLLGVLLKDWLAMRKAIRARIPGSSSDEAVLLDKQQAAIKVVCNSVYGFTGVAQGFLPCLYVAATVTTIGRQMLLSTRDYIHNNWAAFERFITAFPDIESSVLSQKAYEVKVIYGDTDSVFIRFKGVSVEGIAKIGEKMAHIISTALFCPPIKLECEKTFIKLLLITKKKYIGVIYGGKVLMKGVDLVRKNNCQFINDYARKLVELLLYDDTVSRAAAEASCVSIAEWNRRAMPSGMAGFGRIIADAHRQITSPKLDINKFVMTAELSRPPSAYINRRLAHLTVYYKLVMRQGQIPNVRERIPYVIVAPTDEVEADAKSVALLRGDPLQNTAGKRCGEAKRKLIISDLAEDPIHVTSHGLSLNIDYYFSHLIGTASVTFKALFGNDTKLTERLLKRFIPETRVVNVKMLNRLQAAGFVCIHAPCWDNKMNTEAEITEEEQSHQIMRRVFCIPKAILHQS
T1 sequence (P08546 whole entry): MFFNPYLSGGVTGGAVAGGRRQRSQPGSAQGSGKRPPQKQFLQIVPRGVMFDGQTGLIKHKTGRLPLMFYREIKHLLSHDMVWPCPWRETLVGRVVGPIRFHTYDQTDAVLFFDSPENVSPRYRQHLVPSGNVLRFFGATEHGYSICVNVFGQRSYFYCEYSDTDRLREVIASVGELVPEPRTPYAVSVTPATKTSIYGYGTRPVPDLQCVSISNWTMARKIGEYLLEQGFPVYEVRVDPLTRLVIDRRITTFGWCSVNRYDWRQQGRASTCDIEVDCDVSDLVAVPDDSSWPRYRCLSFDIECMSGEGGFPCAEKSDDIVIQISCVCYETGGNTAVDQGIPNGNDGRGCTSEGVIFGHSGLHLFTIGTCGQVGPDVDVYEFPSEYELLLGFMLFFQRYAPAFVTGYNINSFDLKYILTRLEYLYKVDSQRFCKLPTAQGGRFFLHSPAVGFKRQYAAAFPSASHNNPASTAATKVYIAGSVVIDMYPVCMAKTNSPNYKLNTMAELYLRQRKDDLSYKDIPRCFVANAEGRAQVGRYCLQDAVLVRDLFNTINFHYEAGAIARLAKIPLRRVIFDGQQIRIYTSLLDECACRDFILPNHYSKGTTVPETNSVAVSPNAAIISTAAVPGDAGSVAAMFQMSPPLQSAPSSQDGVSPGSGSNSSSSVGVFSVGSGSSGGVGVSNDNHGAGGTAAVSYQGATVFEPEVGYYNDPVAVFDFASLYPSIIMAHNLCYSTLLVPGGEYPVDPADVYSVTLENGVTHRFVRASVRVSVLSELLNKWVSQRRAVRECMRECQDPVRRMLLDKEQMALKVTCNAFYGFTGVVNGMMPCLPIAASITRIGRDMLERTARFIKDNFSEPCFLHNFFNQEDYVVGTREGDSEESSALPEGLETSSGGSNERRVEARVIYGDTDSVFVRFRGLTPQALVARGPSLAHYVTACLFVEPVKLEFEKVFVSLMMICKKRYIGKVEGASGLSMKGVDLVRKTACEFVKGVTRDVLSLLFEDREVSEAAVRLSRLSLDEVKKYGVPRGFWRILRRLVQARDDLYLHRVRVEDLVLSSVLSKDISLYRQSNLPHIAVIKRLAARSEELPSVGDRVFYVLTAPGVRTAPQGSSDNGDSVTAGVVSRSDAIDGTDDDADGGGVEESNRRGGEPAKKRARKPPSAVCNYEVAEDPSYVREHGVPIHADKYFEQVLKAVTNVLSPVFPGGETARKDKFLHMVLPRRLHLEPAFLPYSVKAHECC

Structure (SMILES)	pIC50 [1]	pIC50 [2]	pEC50 [3, 6]	pEC50 [4, 7]	pEC50 [5, 8]	pEC50 [4, 9]	pEC50 [5, 10]	pEC50 ([3]; viral qPCR assay of Example 191)	pEC50 ([4]; MRC5 cells, read-out: VZV Cell (EC50) MRC5 10%)	pEC50 ([5]; VERO cells, read-out: HSV1 Cell (EC50) VERO 10%)
CSc1cnc(C(=O)NCc2ccc(Cl)cc2)cc1O[C@H]1CCN2C(=O)OC[C@@H]2C1 [Compound 147a]	7.72	7.63	6.61	6.21	6.38	–	–	–	–	–
CC(C)n1cc(-c2c[n+]([O-])c(C(=O)NCc3ccc(Cl)cc3)cc2O[C@H]2CCN3C(=O)OC[C@@H]3C2)cn1 [Compound 131]	7.93	7.96	7.01	–	–	6.80	6.57	–	–	–
O=C(NCc1ccc(Cl)cc1)c1cc(O[C@H]2CCN3C(=O)OC[C@@H]3C2)c(C2CC2CO)cn1 (single isomer, unassigned) [Compound 156-1]	7.39	7.60	–	–	–	–	–	5.89	5.58	5.46
O=C(NCc1ccc(Cl)cc1F)c1cc(O[C@H]2CCN3C(=O)OC[C@@H]3C2)c(-c2cnn(C(F)F)c2)cn1 [Compound 8]	7.58	7.48	6.36	–	–	6.43	6.59	–	–	–
O=C(NCc1ccc(Cl)cc1)c1cc(O[C@H]2CCN3C(=O)OC[C@@H]3C2)c(CN2CCC(O)CC2)cn1 [Compound 135]	7.05	7.39	6.20	–	–	6.46	5.04	–	–	–
O=C(NCc1ccc(Cl)cc1)c1cc(O[C@H]2CCN3C(=O)OC[C@@H]3C2)c(-c2cnn(CCO)c2)cn1 [Compound 34]	8.16	8.32	7.15	–	6.38	6.72	5.91	–	–	–
O=C(NCc1ccc(Cl)cc1)c1cc(O[C@H]2CCN3C(=O)OC[C@@H]3C2)c(CN2CCCC(O)C2)cn1 (mixture of isomers) [Compound 140]	7.21	7.26	6.07	5.59	–	–	5.36	–	–	–
O=C(NCc1ccc(Cl)cc1)c1cc(O[C@H]2CCN3C(=O)OC[C@@H]3C2)c(C2CC(F)(F)C2)cn1 [Compound 108]	7.35	7.58	6.07	5.79	6.19	–	–	–	–	–
Cc1cc(-c2cnc(C(=O)NCc3ccc(Cl)cc3)cc2O[C@H]2CCN3C(=O)OC[C@@H]3C2)on1 [Compound 150]	8.11	≥ 9.35	6.96	6.84	7.11	–	–	–	–	–
O=C(NCc1ccc(Cl)cc1)c1cc(O[C@H]2CCN3C(=O)OC[C@@H]3C2)c(O)cn1 [Compound 146]	7.70	8.09	5.94	–	–	–	5.21	–	–	–
O=C(NCc1ccc(Cl)cc1)c1cc(O[C@H]2CCN3C(=O)OC[C@@H]3C2)c(CO)cn1 [Compound 98]	7.34	7.55	6.29	–	–	–	5.82	–	–	–
O=C(NCc1ccc(Cl)cc1)c1cc(O[C@@H]2CCN3C(=O)OC[C@H]3C2)c(-c2cn[nH]c2)cn1 (racemic) [Compound 25]	7.86	8.35	6.59	–	–	–	5.78	–	–	–
CC(=O)N1CCC(Oc2cc(C(=O)NCc3ccc(Cl)cc3)ncc2C#Cc2ccc(C)cn2)CC1 [Compound 71]	6.77	6.92	5.82	–	–	–	6.45	–	–	–
Cc1cnc(-c2cnc(C(=O)NCc3ccc(Cl)cc3)cc2OC(C)C)s1 [Compound 103]	5.64	6.02	4.71	–	–	–	5.52	–	–	–
Cc1cnc(C(=O)NCc2ccc(Cl)cc2)cc1O[C@H]1CCN2C(=O)CC[C@@H]2C1 [Compound 169]	7.33	8.26	5.83	–	–	–	6.23	–	–	–
CC(=O)N1CCC(Oc2cc(C(=O)NCc3ccc(Cl)cc3)ncc2/C=C/CO)CC1 [Compound 73]	7.03	7.35	5.75	–	–	–	6.07	–	–	–
CC(=O)N1CCC(Oc2cc(C(=O)NCc3ccc(Cl)cc3)ncc2/C=C/CC(C)O)CC1 (stereo not shown) [Compound 72]	7.16	7.29	6.07	–	–	–	5.95	–	–	–
CC(=O)N1CCC(Oc2cc(C(=O)NCc3ccc(Cl)cc3)ncc2C#Cc2cc(C)ccn2)CC1 [Compound 76]	6.68	6.78	5.91	–	–	–	6.20	–	–	–
